Values joined by “and” are separate entries in the source; they are usually repeats but may differ in a detail not shown here. Identical values can stand only once.
Conditions: Crystal

[F][Cd][F] [cadmium difluoride]
Conditions | vapor or sublimation pressure
962 K | 1.26e-05 kPa
968 K | 1.35e-05 kPa
973 K | 1.58e-05 kPa
977 K | 2e-05 kPa
978 K | 2.51e-05 kPa
983 K | 2.51e-05 kPa
984 K | 2.69e-05 kPa
988 K | 3.39e-05 kPa
992 K | 3.39e-05 kPa
993 K | 3.47e-05 kPa
1000 K | 5.01e-05 kPa
1001 K | 4.68e-05 kPa
1002 K | 4.57e-05 kPa
1003 K | 5.75e-05 kPa
1004 K | 5.01e-05 kPa
1009 K | 6.76e-05 kPa
1012 K | 7.94e-05 kPa
1013 K | 6.92e-05 kPa and 6.76e-05 kPa and 7.59e-05 kPa
1014 K | 5.75e-05 kPa
1016 K | 6.76e-05 kPa
1017 K | 5.75e-05 kPa and 9.12e-05 kPa
1018 K | 8.51e-05 kPa
1021 K | 0.000102 kPa
1022 K | 8.71e-05 kPa and 0.000115 kPa
1025 K | 6.76e-05 kPa and 0.000107 kPa
1026 K | 7.94e-05 kPa
1027 K | 9.12e-05 kPa
1028 K | 0.000117 kPa
1030 K | 0.000126 kPa
1031 K | 0.000135 kPa
1032 K | 9.12e-05 kPa and 0.000102 kPa and 0.00012 kPa
1033 K | 9.12e-05 kPa and 0.000158 kPa
1036 K | 0.000102 kPa
1038 K | 0.000115 kPa and 0.000162 kPa
1040 K | 0.000135 kPa and 0.000186 kPa
1042 K | 0.000162 kPa and 0.000182 kPa
1043 K | 0.000186 kPa [middle of 4 runs]
1046 K | 0.000138 kPa and 0.000158 kPa
1048 K | 0.000158 kPa
1049 K | 0.000229 kPa
1050 K | 0.000182 kPa
1051 K | 0.000214 kPa
1052 K | 0.000251 kPa and 0.000295 kPa
1053 K | 0.000251 kPa
1054 K | 0.000204 kPa and 0.000263 kPa
1055 K | 0.000182 kPa and 0.000204 kPa
1057 K | 0.000204 kPa
1059 K | 0.000229 kPa
1060 K | 0.000275 kPa
1061 K | 0.000309 kPa
1062 K | 0.000389 kPa
1064 K | 0.000275 kPa and 0.000339 kPa
1066 K | 0.000275 kPa
1068 K | 0.000295 kPa and 0.000316 kPa and 0.000275 kPa
1069 K | 0.000407 kPa and 0.000389 kPa
1070 K | 0.000355 kPa
1071 K | 0.000339 kPa
1073 K | 0.000398 kPa
1074 K | 0.000525 kPa
1075 K | 0.000389 kPa and 0.000479 kPa
1077 K | 0.000363 kPa
1078 K | 0.000407 kPa
1079 K | 0.000457 kPa [middle of 4 runs]
1080 K | 0.000501 kPa
1082 K | 0.000457 kPa
1084 K | 0.000537 kPa and 0.000676 kPa
1086 K | 0.000676 kPa
1087 K | 0.000501 kPa
1088 K | 0.00055 kPa
1089 K | 0.000457 kPa and 0.000589 kPa
1090 K | 0.00055 kPa
1091 K | 0.000708 kPa
1093 K | 0.000617 kPa
1095 K | 0.000933 kPa
1096 K | 0.000631 kPa
1097 K | 0.000631 kPa and 0.000724 kPa and 0.000912 kPa
1098 K | 0.000724 kPa and 0.000575 kPa and 0.000741 kPa
1101 K | 0.000912 kPa
1102 K | 0.000724 kPa
1103 K | 0.000933 kPa
1104 K | 0.000813 kPa
1105 K | 0.000871 kPa and 0.0012 kPa
1107 K | 0.000912 kPa and 0.000813 kPa and 0.000676 kPa
1108 K | 0.0012 kPa
1110 K | 0.00117 kPa
1111 K | 0.00117 kPa
1114 K | 0.001 kPa and 0.0011 kPa and 0.00105 kPa
1115 K | 0.00135 kPa
1116 K | 0.00151 kPa
1117 K | 0.00117 kPa and 0.00102 kPa and 0.00115 kPa
1118 K | 0.0011 kPa and 0.001 kPa and 0.00158 kPa
1120 K | 0.0017 kPa
1121 K | 0.00162 kPa
1123 K | 0.00145 kPa
1124 K | 0.00115 kPa
1125 K | 0.00132 kPa and 0.00138 kPa
1126 K | 0.00129 kPa
1127 K | 0.00145 kPa and 0.00129 kPa and 0.00191 kPa
1129 K | 0.00141 kPa and 0.002 kPa and 0.00195 kPa
1134 K | 0.00174 kPa
1135 K | 0.00195 kPa
1136 K | 0.00178 kPa and 0.00166 kPa
1137 K | 0.00245 kPa
1138 K | 0.00245 kPa
1139 K | 0.00182 kPa
1145 K | 0.00224 kPa
1147 K | 0.00229 kPa
1149 K | 0.00229 kPa

[F][Zn][F] [zinc fluoride]
Conditions | vapor or sublimation pressure
846 K | 1.2e-05 kPa
852 K | 1.2e-05 kPa
853 K | 1.23e-05 kPa
854 K | 1.78e-05 kPa
859 K | 1.23e-05 kPa
865 K | 2.4e-05 kPa
867 K | 1.82e-05 kPa and 2.4e-05 kPa
871 K | 2.45e-05 kPa
875 K | 2.45e-05 kPa
876 K | 3.55e-05 kPa and 4.79e-05 kPa
880 K | 3.63e-05 kPa and 3.55e-05 kPa
883 K | 4.57e-05 kPa and 3.63e-05 kPa
885 K | 4.57e-05 kPa
886 K | 3.63e-05 kPa
887 K | 4.57e-05 kPa and 6.03e-05 kPa and 4.9e-05 kPa
888 K | 4.57e-05 kPa
889 K | 7.24e-05 kPa
891 K | 6.03e-05 kPa
893 K | 6.17e-05 kPa
895 K | 6.76e-05 kPa and 4.9e-05 kPa
896 K | 6.76e-05 kPa and 6.17e-05 kPa
898 K | 6.76e-05 kPa and 8.32e-05 kPa and 7.41e-05 kPa
900 K | 6.76e-05 kPa
902 K | 8.51e-05 kPa and 8.32e-05 kPa
903 K | 9.12e-05 kPa and 0.000107 kPa
904 K | 7.41e-05 kPa
905 K | 7.41e-05 kPa
906 K | 9.12e-05 kPa and 0.000107 kPa
909 K | 0.000102 kPa and 9.77e-05 kPa
910 K | 0.00012 kPa
911 K | 0.000115 kPa
912 K | 9.77e-05 kPa
913 K | 0.000138 kPa and 0.000123 kPa
914 K | 0.000155 kPa and 0.00011 kPa
916 K | 0.000158 kPa and 0.000166 kPa
919 K | 0.000158 kPa and 0.000135 kPa
920 K | 0.000166 kPa
921 K | 0.000182 kPa
922 K | 0.000135 kPa
923 K | 0.000204 kPa and 0.000148 kPa
924 K | 0.000204 kPa
925 K | 0.000182 kPa
926 K | 0.000229 kPa
928 K | 0.000204 kPa and 0.000251 kPa
930 K | 0.000251 kPa and 0.000195 kPa
932 K | 0.000263 kPa
933 K | 0.000195 kPa and 0.000275 kPa
934 K | 0.000295 kPa and 0.000257 kPa and 0.000209 kPa
937 K | 0.000316 kPa
938 K | 0.000372 kPa
939 K | 0.000316 kPa
940 K | 0.000339 kPa
941 K | 0.000372 kPa and 0.000282 kPa
942 K | 0.000282 kPa and 0.000355 kPa
943 K | 0.000282 kPa
945 K | 0.000407 kPa
946 K | 0.00038 kPa
948 K | 0.000437 kPa
950 K | 0.000479 kPa and 0.000513 kPa
951 K | 0.000479 kPa and 0.000389 kPa
952 K | 0.000363 kPa and 0.000501 kPa
955 K | 0.000575 kPa
956 K | 0.000513 kPa and 0.000417 kPa
958 K | 0.000575 kPa
959 K | 0.000589 kPa
960 K | 0.000661 kPa
961 K | 0.000661 kPa and 0.000525 kPa
962 K | 0.000692 kPa
963 K | 0.000525 kPa and 0.000692 kPa
965 K | 0.000589 kPa
966 K | 0.000794 kPa and 0.000692 kPa
968 K | 0.000759 kPa
969 K | 0.000851 kPa and 0.000912 kPa
970 K | 0.000871 kPa and 0.000708 kPa
972 K | 0.000912 kPa
973 K | 0.000955 kPa
974 K | 0.000741 kPa
975 K | 0.000912 kPa and 0.000813 kPa
976 K | 0.00107 kPa
978 K | 0.00105 kPa and 0.00123 kPa
979 K | 0.00115 kPa and 0.000933 kPa
980 K | 0.00115 kPa
982 K | 0.0012 kPa
983 K | 0.000977 kPa and 0.00132 kPa
984 K | 0.00105 kPa
986 K | 0.00145 kPa and 0.00126 kPa
988 K | 0.00148 kPa and 0.00158 kPa
989 K | 0.00148 kPa and 0.00138 kPa and 0.00126 kPa
991 K | 0.00158 kPa
993 K | 0.00132 kPa and 0.00135 kPa
994 K | 0.00178 kPa
996 K | 0.00191 kPa and 0.00195 kPa
997 K | 0.00166 kPa
998 K | 0.00182 kPa and 0.00214 kPa
999 K | 0.00195 kPa and 0.00166 kPa
1001 K | 0.00209 kPa
1003 K | 0.00178 kPa
1004 K | 0.00174 kPa and 0.00245 kPa
1005 K | 0.00251 kPa
1006 K | 0.00245 kPa
1007 K | 0.00234 kPa
1008 K | 0.00219 kPa
1009 K | 0.00219 kPa and 0.00295 kPa
1010 K | 0.00257 kPa
1011 K | 0.00269 kPa
1013 K | 0.00229 kPa and 0.00316 kPa and 0.00234 kPa
1016 K | 0.00347 kPa
1017 K | 0.00324 kPa and 0.00295 kPa
1019 K | 0.00295 kPa
1020 K | 0.00295 kPa
1021 K | 0.00347 kPa and 0.00339 kPa
1022 K | 0.00398 kPa and 0.00302 kPa
1023 K | 0.00309 kPa
1027 K | 0.00407 kPa and 0.0038 kPa
1031 K | 0.00447 kPa and 0.00457 kPa and 0.00537 kPa
1035 K | 0.00427 kPa
1036 K | 0.00525 kPa
1037 K | 0.0049 kPa
1039 K | 0.00562 kPa
1040 K | 0.00692 kPa
1041 K | 0.00562 kPa
1046 K | 0.00676 kPa and 0.00575 kPa
1047 K | 0.00631 kPa

Source: the NIST ThermoML archive (doi:10.1021/je800242n)
